The text below walks through data of article PMC6437697 (Journal of Medicinal Chemistry, 2019).

What all share (experiment): KINOMEscan
Type in all cases: binding
Holding throughout (settings): read-out: % control activity remaining

The target of one assay is T1, MAP4K2 (Homo sapiens, UniProt Q12851).
T1 construct: purchased Eurofins DiscoverX KINOMEscan
T1 sequence (Q12851 1-820): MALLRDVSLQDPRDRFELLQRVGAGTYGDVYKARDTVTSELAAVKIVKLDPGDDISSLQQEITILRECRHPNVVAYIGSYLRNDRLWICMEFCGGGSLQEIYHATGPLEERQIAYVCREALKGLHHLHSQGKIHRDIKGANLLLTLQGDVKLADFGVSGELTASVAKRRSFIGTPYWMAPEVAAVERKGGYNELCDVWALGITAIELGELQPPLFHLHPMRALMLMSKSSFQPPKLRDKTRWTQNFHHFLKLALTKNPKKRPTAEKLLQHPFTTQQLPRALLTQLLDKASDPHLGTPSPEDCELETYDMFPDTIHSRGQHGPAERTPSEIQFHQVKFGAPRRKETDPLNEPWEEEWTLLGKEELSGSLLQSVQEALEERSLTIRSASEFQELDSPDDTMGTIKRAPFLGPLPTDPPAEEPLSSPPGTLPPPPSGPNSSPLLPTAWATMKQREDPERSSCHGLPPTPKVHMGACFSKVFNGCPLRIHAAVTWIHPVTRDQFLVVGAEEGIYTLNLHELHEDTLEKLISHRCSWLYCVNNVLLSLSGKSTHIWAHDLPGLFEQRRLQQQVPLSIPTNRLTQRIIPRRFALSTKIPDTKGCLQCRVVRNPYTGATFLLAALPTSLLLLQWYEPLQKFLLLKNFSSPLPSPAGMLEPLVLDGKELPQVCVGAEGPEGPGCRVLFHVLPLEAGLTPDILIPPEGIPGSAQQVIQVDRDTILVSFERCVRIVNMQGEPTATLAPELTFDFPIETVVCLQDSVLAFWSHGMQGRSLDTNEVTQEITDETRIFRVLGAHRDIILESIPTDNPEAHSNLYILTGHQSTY

A further assay deals with T2, CHEK1 (Homo sapiens, UniProt O14757).
T2 construct: purchased Eurofins DiscoverX KINOMEscan
T2 sequence (O14757 1-476): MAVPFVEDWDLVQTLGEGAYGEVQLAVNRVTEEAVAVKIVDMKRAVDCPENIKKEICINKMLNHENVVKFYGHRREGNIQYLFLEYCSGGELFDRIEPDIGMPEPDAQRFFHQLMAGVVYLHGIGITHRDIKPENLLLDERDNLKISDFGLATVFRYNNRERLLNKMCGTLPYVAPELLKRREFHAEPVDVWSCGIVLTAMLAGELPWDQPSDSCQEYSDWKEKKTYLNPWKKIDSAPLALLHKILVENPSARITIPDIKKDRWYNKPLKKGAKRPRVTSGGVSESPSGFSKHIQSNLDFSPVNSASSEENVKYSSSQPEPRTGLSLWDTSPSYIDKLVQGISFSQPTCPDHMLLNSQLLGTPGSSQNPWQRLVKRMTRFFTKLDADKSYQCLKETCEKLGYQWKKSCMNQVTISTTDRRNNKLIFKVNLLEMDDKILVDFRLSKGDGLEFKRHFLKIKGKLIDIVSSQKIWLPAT

The target of a further assay is T3, PIP5K2B (Homo sapiens, UniProt P78356).
T3 construct: purchased Eurofins DiscoverX KINOMEscan
T3 sequence (P78356 1-416): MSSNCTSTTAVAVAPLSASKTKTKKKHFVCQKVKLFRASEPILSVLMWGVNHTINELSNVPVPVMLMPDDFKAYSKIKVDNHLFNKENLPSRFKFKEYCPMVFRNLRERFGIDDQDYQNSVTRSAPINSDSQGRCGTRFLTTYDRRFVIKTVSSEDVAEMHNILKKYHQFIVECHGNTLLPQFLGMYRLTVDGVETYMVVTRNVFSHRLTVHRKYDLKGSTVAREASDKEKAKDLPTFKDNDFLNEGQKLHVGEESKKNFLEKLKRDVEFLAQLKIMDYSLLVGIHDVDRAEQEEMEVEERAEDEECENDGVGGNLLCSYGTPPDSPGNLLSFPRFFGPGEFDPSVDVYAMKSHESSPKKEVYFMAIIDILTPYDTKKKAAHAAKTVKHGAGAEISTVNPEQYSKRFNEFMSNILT

The next assay deals with T4, OSR1 (Homo sapiens, UniProt O95747).
T4 construct: purchased Eurofins DiscoverX KINOMEscan

Another assay addresses T5, ROCK2 (Homo sapiens, UniProt O75116).
T5 construct: purchased Eurofins DiscoverX KINOMEscan

In a further assay the target is T6, CDKL5 (Homo sapiens, UniProt O76039).
T6 construct: purchased Eurofins DiscoverX KINOMEscan
T6 sequence (O76039 1-960): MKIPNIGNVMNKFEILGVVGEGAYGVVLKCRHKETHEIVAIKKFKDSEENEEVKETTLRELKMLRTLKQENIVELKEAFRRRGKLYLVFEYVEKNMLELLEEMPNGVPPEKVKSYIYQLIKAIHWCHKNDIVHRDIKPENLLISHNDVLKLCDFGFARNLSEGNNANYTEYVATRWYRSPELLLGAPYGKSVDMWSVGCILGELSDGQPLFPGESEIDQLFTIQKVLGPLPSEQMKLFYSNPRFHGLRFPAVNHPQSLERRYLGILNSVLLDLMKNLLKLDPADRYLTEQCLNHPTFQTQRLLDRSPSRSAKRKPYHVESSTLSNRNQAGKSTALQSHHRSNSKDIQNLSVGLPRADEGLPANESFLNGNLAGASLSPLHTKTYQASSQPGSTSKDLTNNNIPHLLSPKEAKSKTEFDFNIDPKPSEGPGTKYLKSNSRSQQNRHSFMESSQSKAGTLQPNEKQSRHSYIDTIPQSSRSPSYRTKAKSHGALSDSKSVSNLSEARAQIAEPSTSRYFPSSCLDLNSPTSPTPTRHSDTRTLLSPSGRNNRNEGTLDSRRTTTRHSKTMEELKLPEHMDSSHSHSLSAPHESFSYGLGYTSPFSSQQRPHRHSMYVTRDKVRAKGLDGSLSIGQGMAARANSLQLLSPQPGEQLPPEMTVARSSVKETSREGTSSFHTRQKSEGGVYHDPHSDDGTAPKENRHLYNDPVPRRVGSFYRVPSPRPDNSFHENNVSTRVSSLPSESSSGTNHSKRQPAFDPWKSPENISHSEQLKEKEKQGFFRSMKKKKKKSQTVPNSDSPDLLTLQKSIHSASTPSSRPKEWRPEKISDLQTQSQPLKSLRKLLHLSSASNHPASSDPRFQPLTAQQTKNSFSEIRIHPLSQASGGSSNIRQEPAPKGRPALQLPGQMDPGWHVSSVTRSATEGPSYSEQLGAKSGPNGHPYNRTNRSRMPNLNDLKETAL

T5 sequence (O75116 whole entry): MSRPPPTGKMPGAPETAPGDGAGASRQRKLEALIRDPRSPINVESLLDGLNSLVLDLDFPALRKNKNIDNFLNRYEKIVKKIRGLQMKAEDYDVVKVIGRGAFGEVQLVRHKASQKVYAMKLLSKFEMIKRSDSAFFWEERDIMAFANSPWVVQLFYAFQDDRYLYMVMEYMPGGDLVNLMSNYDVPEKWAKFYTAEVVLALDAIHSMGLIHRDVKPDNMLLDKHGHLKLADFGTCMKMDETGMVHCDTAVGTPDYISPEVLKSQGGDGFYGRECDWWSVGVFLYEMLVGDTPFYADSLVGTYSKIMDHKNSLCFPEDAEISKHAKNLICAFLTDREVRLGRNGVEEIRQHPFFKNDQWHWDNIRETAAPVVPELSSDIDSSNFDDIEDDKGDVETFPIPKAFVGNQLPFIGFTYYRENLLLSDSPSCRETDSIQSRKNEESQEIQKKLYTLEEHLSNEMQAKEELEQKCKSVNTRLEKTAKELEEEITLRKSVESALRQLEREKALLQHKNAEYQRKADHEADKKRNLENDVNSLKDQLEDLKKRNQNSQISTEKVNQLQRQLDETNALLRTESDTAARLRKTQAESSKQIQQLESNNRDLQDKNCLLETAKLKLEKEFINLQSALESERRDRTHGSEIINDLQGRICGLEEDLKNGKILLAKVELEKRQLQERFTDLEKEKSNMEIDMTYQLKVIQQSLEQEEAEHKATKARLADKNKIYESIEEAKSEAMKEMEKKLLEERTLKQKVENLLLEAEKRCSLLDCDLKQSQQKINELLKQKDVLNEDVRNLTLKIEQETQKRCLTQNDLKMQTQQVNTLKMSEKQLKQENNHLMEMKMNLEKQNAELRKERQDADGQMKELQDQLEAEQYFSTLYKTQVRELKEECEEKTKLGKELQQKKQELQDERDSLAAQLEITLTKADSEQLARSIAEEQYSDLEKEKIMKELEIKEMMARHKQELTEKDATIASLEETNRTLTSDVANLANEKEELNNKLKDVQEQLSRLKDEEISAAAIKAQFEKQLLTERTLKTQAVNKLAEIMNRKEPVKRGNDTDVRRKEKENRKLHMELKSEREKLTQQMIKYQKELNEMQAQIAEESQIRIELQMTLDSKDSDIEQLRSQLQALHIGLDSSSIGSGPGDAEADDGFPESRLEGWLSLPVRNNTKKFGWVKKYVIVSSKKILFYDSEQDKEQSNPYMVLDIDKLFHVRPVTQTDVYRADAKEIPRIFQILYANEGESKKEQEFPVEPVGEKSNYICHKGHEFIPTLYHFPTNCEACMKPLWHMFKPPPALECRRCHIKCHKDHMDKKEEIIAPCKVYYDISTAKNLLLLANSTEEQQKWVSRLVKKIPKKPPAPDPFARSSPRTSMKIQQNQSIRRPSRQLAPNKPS
T4 sequence (O95747 whole entry): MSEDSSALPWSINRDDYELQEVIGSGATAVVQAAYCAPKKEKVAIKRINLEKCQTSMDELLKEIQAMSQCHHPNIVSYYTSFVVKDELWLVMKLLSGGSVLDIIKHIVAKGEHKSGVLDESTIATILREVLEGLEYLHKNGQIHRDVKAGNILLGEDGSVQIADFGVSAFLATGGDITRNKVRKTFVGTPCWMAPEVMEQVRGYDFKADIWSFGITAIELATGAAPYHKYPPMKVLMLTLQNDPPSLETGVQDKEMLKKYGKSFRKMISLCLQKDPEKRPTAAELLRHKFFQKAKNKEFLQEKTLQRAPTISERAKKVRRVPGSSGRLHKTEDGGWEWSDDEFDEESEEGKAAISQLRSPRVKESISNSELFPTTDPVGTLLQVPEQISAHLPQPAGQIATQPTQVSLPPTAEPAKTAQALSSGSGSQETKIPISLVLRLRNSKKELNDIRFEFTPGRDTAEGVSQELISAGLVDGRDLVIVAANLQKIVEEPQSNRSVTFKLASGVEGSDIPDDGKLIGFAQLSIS

Turning to `Clc1cc(NCC2CC2)c2ncc(-c3ccc4[nH]ncc4c3)n2n1` [compound 2, 6-Chloro-N-(cyclopropylmethyl)-3-(1H-indazol-5-yl)imidazo[1,2-b]pyridazin-8-amine], the remaining binding at 1 µM on MAP4K2 turned out to be 99%; on CHEK1 it was 88%; on PIP5K2B, 78%; on OSR1, 79%; on ROCK2 it was 31%; at CDKL5, 100%.

For the compound `O=C(CN1CCOCC1)N[C@H]1CC[C@H](Nc2cc(Cl)nn3c(-c4ccc5[nH]ncc5c4)cnc23)CC1` [compound 26], the remaining binding at 1 µM on MAP4K2 came out at 76%; at CHEK1, 100%; on PIP5K2B it was 87%; at OSR1, 99%; at ROCK2, 21%; at CDKL5, 46%.

On to `CN1CCC(CNc2cc(Cl)nn3c(-c4cc5nc(Nc6ccccc6)[nH]c5cc4F)cnc23)CC1` [compound 31, 6-Chloro-3-(6-fluoro-2-(phenylamino)-1H-benzo[d]imidazol-5-yl)-N-((1-methylpiperidin-4-yl)methyl)imidazo[1,2-b]pyridazin-8-amine], for which the remaining binding at 1 µM turned out to be 85% at MAP4K2; 100% at CHEK1; 81% at PIP5K2B; 100% on OSR1; 100% on ROCK2; 96% on CDKL5.
